Source: patent US7741327B2 (Hoffmann-La Roche Inc., priority 2008, dated 2010)

How the values were obtained:
C57B6 mice = test: Glucokinase activator in vivo screen: blood glucose lowering in mice after oral dosing; conditions: Mus musculus, vs control, read-out: % gluc lowering @ 4 H; for change in vivo at 25 mg/kg: 4 h post 25 mg/kg oral dose; for change in vivo at 30 mg/kg: 4 h post 30 mg/kg oral dose
Method: Glucokinase Activator in vivo Screen Protocol in Lean and Diet Induced Obese Mice: Lean or Diet-Induced Obese (DIO) C57BL/6J mice were orally dosed via gavage with Glucokinase (GK) activator following a two hour fasting period. Blood glucose determinations were made at various (e.g. 0, 1, 2, 4 and 8 h post-oral gavage) times during the study.
C57Bl/6J mice were obtained from Jackson Laboratory (Bar Harbor, Me.) and were maintained in a light-dark cycle with lights on from 0600-1800 hr. For studies in lean mice, the mice were received at age ten weeks and given ad libitum access to control diet (LabDiet 5001 chow, PMI Nutrition, Brentwood, Mo.), and were at least age 11 weeks at the time of study. For studies in the DIO model, the mice were received at age five weeks and given ad libitum access to Bio-Serv F3282 High Fat Diet (Frenchtown, N.J.), and were at least age 16 weeks at the time of study. The experiments were conducted during the light phase of the light-dark cycle. Mice (n=6) are weighed and fasted for a two hour period prior to oral treatment. GK activators are formulated in Gelucire vehicle (Ethanol:Gelucire44/14:PEG400q.s. 4:66:30 v/w/v. For studies in lean mice, the mice were dosed orally with 5.0 μL per gram of body weight (i.e. 5 ml/kg×10.0 mg/ml formulation to equal a 50 mg/kg dose). For studies in DIO mice, the mice were dosed orally with 5.0 μL per gram of body weight (i.e. 5.0 ml/kg×5 mg/ml formulation to equal a 25 mg/kg dose). Immediately prior to dosing, a pre-dose (time zero) blood glucose reading was acquired by snipping off a small portion of the animal's tail and collecting 15 μL blood into a heparinized capillary tube for analysis. Following GK activator administration, additional blood glucose readings were taken at various time points post dose from the same tail wound. Results were interpreted by comparing the mean blood glucose values of vehicle treated mice with GK activator treated mice over the study period.
The Table below provides data for % glucose lowering of a representative number of compounds of the present invention vs control at 4 h post 25 or 30 mg/kg dose in C57B6 mice: […]

[1] = biological target: T1, Recombinant human liver GK1 (GST-GK) (Homo sapiens, UniProt P35557); test: In vitro glucokinase activity (G6PDH-coupled NADH assay); format: biochemical; conditions: 30° C., 5 mM D-glucose, 10% DMSO
T1 construct: made in house; host or cells: E. coli
T1 sequence (P35557 1-466 isoform P35557-2): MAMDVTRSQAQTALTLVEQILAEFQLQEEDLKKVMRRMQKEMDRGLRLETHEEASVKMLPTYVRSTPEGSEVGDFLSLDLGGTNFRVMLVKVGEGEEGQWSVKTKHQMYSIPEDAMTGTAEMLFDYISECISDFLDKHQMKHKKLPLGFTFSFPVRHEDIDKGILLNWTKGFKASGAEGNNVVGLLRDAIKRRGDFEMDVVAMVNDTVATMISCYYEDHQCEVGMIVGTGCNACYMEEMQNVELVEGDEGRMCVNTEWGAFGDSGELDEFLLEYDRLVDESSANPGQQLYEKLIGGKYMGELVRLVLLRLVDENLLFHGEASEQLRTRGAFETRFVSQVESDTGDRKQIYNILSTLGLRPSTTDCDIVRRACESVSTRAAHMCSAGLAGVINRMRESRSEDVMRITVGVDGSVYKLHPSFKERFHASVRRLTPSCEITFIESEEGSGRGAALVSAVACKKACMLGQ
In short: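 GST-tagged human liver GK1 from E. coli, assayed at 30° C in 25 mM Hepes pH 7.1 with 5 mM D-glucose, 1 mM ATP, 1.8 mM NAD and G6PDH coupling, 10% DMSO final; reaction started with enzyme after 10 min preincubation. NADH formation followed at OD340; SC1.5 is activator concentration giving 50% increase over DMSO control rate.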

SC1.5 (concentration of activator that produced a 50% increase in the activity of GK) [1]	SMILES	change in vivo at 25 mg/kg (C57B6 mice)	change in vivo at 30 mg/kg (C57B6 mice)
0.031 µM	COc1ccccc1OC1=CC(=O)N([C@@H](CC2CCCC2)C(=O)Nc2nccs2)C1 [Example 26, (S)-3-Cyclopentyl-2-[4-(2-methoxy-phenoxy)-2-oxo-2,5-dihydro-pyrrol-1-yl]-N-thiazol-2-yl-propionamide]	-36.9%	–
0.079 µM	COc1cccc(OC2=CC(=O)N([C@@H](CC(C)C)C(=O)Nc3ccn(C[C@@H](O)CO)n3)C2)c1Cl [Example 49]	–	-38.3%
0.03 µM	COc1cccc(OC2=CC(=O)N([C@@H](CC3CCOCC3)C(=O)Nc3ccn(CC(C)(C)O)n3)C2)c1Cl [Example 51, (S)-2-[4-(2-Chloro-3-methoxy-phenoxy)-2-oxo-2,5-dihydro-pyrrol-1-yl]-N-[1-(2-hydroxy-2-methyl-propyl)-1H-pyrazol-3-yl]-3-(tetrahydro-pyran-4-yl)-propionamide]	–	-53.9%
0.348 µM	COc1ccccc1OC1=CC(=O)N([C@@H](CC2CCCO2)C(=O)Nc2ccn(CC(C)(C)O)n2)C1 (stereo partly drawn) [Example 31, (S)-N-[1-(2-hydroxy-2-methyl-propyl)-1H-pyrazol-3-yl]-2-[4-(2-methoxy-phenoxy)-2-oxo-2,5-dihydro-pyrrol-1-yl]-3-(tetrahydro-furan-2-yl)-propionamide]	-31.6%	–
3.982 µM	CC(C)(O)Cn1ccc(NC(=O)[C@H](CC2CCCC2)N2CC(OC3CCOCC3)=CC2=O)n1 [Example 18, (S)-3-Cyclopentyl-N-[1-(2-hydroxy-2-methyl-propyl)-1H-pyrazol-3-yl]-2-[2-oxo-4-(tetrahydro-pyran-4-yloxy)-2,5-dihydro-pyrrol-1-yl]-propionamide]	-10%	–
0.649 µM	CC(C)(O)Cn1ccc(NC(=O)[C@H](CC2CCCC2)N2CC(OC3CCCC3)=CC2=O)n1 [Example 16, (S)-3-Cyclopentyl-N-[1-(2-hydroxy-2-methyl-propyl)-1H-pyrazol-3-yl]-2-(4-cyclopentyloxy-2-oxo-2,5-dihydro-pyrrol-1-yl)-propionamide]	-36%	–
0.257 µM	CC(C)C[C@@H](C(=O)Nc1ccn(C[C@@H](O)CO)n1)N1CC(Oc2c(F)cccc2F)=CC1=O [Example 47, (S)-2-[4-(2,6-difluoro-phenoxy)-2-oxo-2,5-dihydro-pyrrol-1-yl]-4-methyl-pentanoic acid [1-((R)-2,3-dihydroxy-propyl)-1H-pyrazol-3-yl]-amide]	–	-33.2%
0.118 µM	CC(C)C[C@@H](C(=O)Nc1ccn(C[C@@H](O)CO)n1)N1CC(Oc2ccccc2Cl)=CC1=O [Example 66, (S)-2-[4-(2-Chloro-phenoxy)-2-oxo-2,5-dihydro-pyrrol-1-yl]-4-methyl-pentanoic acid [1-((R)-2,3-dihydroxy-propyl)-1H-pyrazol-3-yl]-amide]	–	-55.4%
0.025 µM	CC(C)(O)Cn1ccc(NC(=O)[C@H](CC2CCCCC2)N2CC(Oc3ccccc3C(F)(F)F)=CC2=O)n1 [Example 32, (S)-3-Cyclohexyl-N-[1-(2-hydroxy-2-methyl-propyl)-1H-pyrazol-3-yl]-2-[2-oxo-4-(2-trifluoromethyl-phenoxy)-2,5-dihydro-pyrrol-1-yl]-propionamide]	-37.5%	–
0.162 µM	CC(C)C[C@@H](C(=O)Nc1ccn(CC(C)(C)O)n1)N1CC(Oc2cccc(Cl)c2Cl)=CC1=O.Cl [Example 77, (S)-2-[4-(2,3-Dichloro-phenoxy)-2-oxo-2,5-dihydro-pyrrol-1-yl]-4-methyl-pentanoic acid [1-(2-hydroxy-2-methyl-propyl)-1H-pyrazol-3-yl]-amide Hydrochloride]	–	-39.2%
0.029 µM	COc1ccccc1OC1=CC(=O)N([C@@H](CC2CCCC2)C(=O)Nc2ccn(CC(C)(C)O)n2)C1 [Example 27, (S)-3-Cyclopentyl-N-[1-(2-hydroxy-2-methyl-propyl)-1H-pyrazol-3-yl]-2-[4-(2-methoxy-phenoxy)-2-oxo-2,5-dihydro-pyrrol-1-yl]-propionamide]	–	-52.2%
0.125 µM	CC(C)C[C@@H](C(=O)Nc1ccn(CC(C)(C)O)n1)N1CC(Oc2ccccc2Cl)=CC1=O [Example 64, (S)-2-[4-(2-Chloro-phenoxy)-2-oxo-2,5-dihydro-pyrrol-1-yl]-4-methyl-pentanoic acid [1-(2-hydroxy-2-methyl-propyl)-1H-pyrazol-3-yl]-amide]	–	-58%
0.03 µM	O=C(Nc1ccn(C[C@@H](O)CO)n1)[C@H](CC1CCCC1)N1CC(Oc2c(F)cccc2F)=CC1=O [Example 88, (S)-3-Cyclopentyl-2-[4-(2,6-difluoro-phenoxy)-2-oxo-2,5-dihydro-pyrrol-1-yl]-N-[1-((R)-2,3-dihydroxy-propyl)-1H-pyrazol-3-yl]-propionamide]	–	-49.3%
0.078 µM	COc1cccc(OC2=CC(=O)N([C@@H](CC(C)C)C(=O)Nc3ccn(CC(C)(C)O)n3)C2)c1Cl [Example 48, (S)-2-[4-(2-Chloro-3-methoxy-phenoxy)-2-oxo-2,5-dihydro-pyrrol-1-yl]-4-methyl-pentanoic acid [1-(2-hydroxy-2-methyl-propyl)-1H-pyrazol-3-yl]-amide]	–	-57.4%
0.545 µM	COC(C)(C)Cn1ccc(NC(=O)[C@H](CC2CCCC2)N2CC(OC3CCCC3)=CC2=O)n1 [Example 21, (S)-3-Cyclopentyl-N-[1-(2-methoxy-2-methyl-propyl)-1H-pyrazol-3-yl]-2-(4-cyclopentyloxy-2-oxo-2,5-dihydro-pyrrol-1-yl)-propionamide]	-26.5%	–
0.058 µM	CC(C)(O)Cn1ccc(NC(=O)[C@H](CC2CCOCC2)N2CC(Oc3c(F)cccc3F)=CC2=O)n1 [Example 43, (S)-2-[4-(2,6-Difluoro-phenoxy)-2-oxo-2,5-dihydro-pyrrol-1-yl]-N-[1-(2-hydroxy-2-methylpropyl)-1H-pyrazol-3-yl]-3-(tetrahydro-pyran-4-yl)-propionamide]	–	-38.1%
0.366 µM	CC(C)(O)Cn1ccc(NC(=O)[C@H](CC2CCCC2)N2CC(OC3CCCCC3)=CC2=O)n1 [Example 17, (S)-3-Cyclopentyl-N-[1-(2-hydroxy-2-methyl-propyl)-1H-pyrazol-3-yl]-2-(4-cyclohexyloxy-2-oxo-2,5-dihydro-pyrrol-1-yl)-propionamide]	-35.8%	–

SMILES	SC1.5 (concentration of activator that produced a 50% increase in the activity of GK) [1]	change in vivo at 25 mg/kg (C57B6 mice)	change in vivo at 30 mg/kg (C57B6 mice)
CC(C)(O)Cn1ccc(NC(=O)[C@H](CC2CCCC2)N2CC(OC3CCC3)=CC2=O)n1 [Example 19, (S)-3-Cyclopentyl-N-[1-(2-hydroxy-2-methyl-propyl)-1H-pyrazol-3-yl]-2-(4-cyclobutoxy-2-oxo-2,5-dihydro-pyrrol-1-yl)-propionamide]	1.991 µM	-29.5%	–
